Results on nine compounds are retold here after patent US8487009B2, “1,2-diphenylethene derivatives for treatment of immune diseases” (Glaxo Group Limited, priority 2001, dated 2013).

The structures appear in SMILES notation. Read-outs that look alike come from different tables or passages of the source.

In one test the test system is IFN-γ. The test can be described thus: IFN-γ production from Con A activated T-cells (ELISA). Particulars: read-out: Concentration for 50% of inhibition of IFN-γ, IC50. Format: cell-based, murine. How it is done:
(§1) To determine the effect of the inventive compounds on non-specific and specific antigen induced T-cell proliferation, compounds were tested at a range of concentrations as outlined by the following protocol: Murine lymph nodes were removed aseptically and cell suspensions were prepared in RPMI-1640. Single lymphocytes were isolated over Lymphocyte-M by centrifugation at 22° C. and 1800 g for 15 min, and then washed three times (500 g for 5 min at 22° C.). Adherent cells were depleted by cytoadherence to fibronectin-coated plastic culture dish (twice at 37° C. for 45 min). T-cells isolated by incubating cell suspensions in a nylon wool column for 2 h at 37° C. and use for subsequent experiments were greater than 95% viable, as determined by trypan blue exclusion. Feeder cells were prepared by treating BALB/C spleen cells with mitomycin C (50 μg/ml, for 20 min at 37° C.) followed by five times washing using a large volume of Hank's solution. C57BL/6 Responders (2×10^5) was incubated in duplicate with the mitomycin C treated BALB/C feeder cells (2×10^5) in 96-well, round-bottomed, microtitre plates (Costar Laboratories, Worcester, Mass.) with complete medium (RPMI 1640 with 25 mM Hepes and L-glutamine supplemented with […] 2-mercapto-ethanol, 10% fetal cow serum (FCS), 10,000 unit of penicillin, and 10 mg of streptomycin per 100 ml of medium) at 37° C., 5% CO2. After 96 h, the culture wells received [^3H]thymidine ([^3H]TdR; 1 μCi/well) and proliferation was assessed at 16 h by harvesting cells onto glass fiber filter paper and counting in a β-counter.
(§2) To determine the effect of inventive compounds on IL-2, IL-4 and IFN-γ production from activated T-cells, the following assays were performed using the protocol outlined above for T-cells. The T-cell was activated by concanavalin A (Con A) and incubated, cytokines in the supernatants were assayed by commercial immune-linked immunosorbent assay (ELISA) kits.

A further test concerns T-cell proliferation. Put plainly: T-cell proliferation ([3H]thymidine uptake, C57BL/6 responders with mitomycin C treated BALB/C feeder cells). Format: cell-based. Particulars: murine T-cells, read-out: Concentration that provides 50% inhibition of T-cell proliferation, IC50. As to the method:
T-cell assay is commonly employed as a primary platform for testing of activities that modulate immune and inflammatory activities in many diseases. Assays of antigen non-specific T-cell proliferation and antigen-specific proliferation are often used in the tests.
as §1

Test [1] deals with induced edema in Balb/c mouse. The test can be described thus: TPA induced mouse ear edema model. Format: in vivo. Particulars: single topical administration. How it is done:
Briefly, Balb/c mouse ear edema was induced by phorbol-12-myristate-13-acetate (TPA) by adding 20 ul of 0.01% (w/v) to the right ear of each mouse. Each test compound dissolved in the same vehicle (ethanol) as TPA was applied separately to the right ear of each moue. The mouse ear edema of each test compound was compared with that of the TPA and expressed as % of inhibition.

The next test has as its system TNF-α production. The test can be described thus: TNF-α production by macrophage cells (ELISA). The test is classed as cell-based. Particulars: murine macrophage cells, 24 h; for Effect on TNF-α production, % of control: 10 μM; for activity at 10 µM: Mus musculus, read-out: Effect on TNF-α production, % of control. From the text: (§3) Macrophages are very important components of the host defense system, but they are also involved in the development of tissue injury during inflammation in some human disease. Efficient antagonists can block subsequent symptoms (skin redness, edema, pain and dysfunction) of inflammation. CD86 expression, nitric oxide and TNF-α production are experimental indicators of macrophage function in vivo. CD86 expression by antigen presenting cells, including dendritic cells, macrophages and activated B cells, is necessary for interaction with T-cell CD28, which is necessary for T-cells to be fully activated. Nitric oxide is a potent microbiological macrophage product. TNF-α is a pro-inflammatory cytokine important in recruitment and stimulation of inflammatory cells. The effect of inventive compounds on the TNF-α production by macrophage cells was tested using the following protocol: Murine macrophage cells were lifted from adherent culture and resuspended in 10% FCS in DMEM. Cells (5×10^4/well) were aliquoted into flat bottom, tissue culture-treated microtitre plates and lipolysaccharide, N-acetylcysteine, test compound or vehicle controls were added. The cells were incubated at 37° C., 5% CO2 for 24 h and the culture supernatant removed for TNF-α ELISA, and CD86 expression was determined by FACS analysis on flow cytometer.
(In general: ELISA stands for enzyme-linked immunosorbent assay.)

A further test relates to IL-2 production. The test can be described thus: IL-2 production from Con A activated T-cells (ELISA). Format: cell-based, murine. The note with it: read-out: Inhibitory activity against IL-2 production, IC50. How it is done:
as §1, §2

Test [2] deals with CD86 expression in murine macrophages. Put plainly: CD86 expression in murine macrophages (FACS). Format: cell-based. The note with it: 10 μM, 24 h.
Excerpt: as §3

Test [3] concerns histamine release by mast cells. The test can be described thus: Histamine release by mast cells derived from mouse bone marrow (hexosamindase activity). The test is classed as cell-based. The note with it: Mast cell, read-out: Effect on histamine release by mast cells, IC50. How it is done: Histamine is an important mediator and is involved in a wide range of biological activities, including inflammation and allergy. The activity of representative compounds, against histamine release was tested using a standard mast cell assay (Arquardt, C. et al. 1986. Am Rev Respir Dis 133:1105-1109). The mast cells were derived from mouse bone marrow. The histamine release was measured by the hexosamindase activity.

Test [4] deals with FMLP induced neutrophil activation. The test can be described thus: FMLP induced neutrophil activation, chemoluminescence. Format: cell-based. Particulars: Homo sapiens, read-out: FMLP induced neutrophil activation, Chemoluminescence (mV), % of control. As to the method:
(§4) Neutrophils predominate over other cell types in many variants of acute and chronic inflammatory condition. Effect of the inventive compounds was tested on human neutrophil activation by chemoattractant [N-formyl-methionyl-luecyl-phenylalanine (FMPL)] and crystal (calcium pyrophosphate dihydrate) using an established protocol (Tudan, C. 1999. Biochem. Pharmacol 58:1869-1880).
(§5) Neutrophils were prepared from freshly collected human citrated whole blood. Briefly, 400 ml of blood were mixed with 80 ml of 4% dextran in Hanks buffered saline solution (HBSS) pH 7.4 and allowed to settle for 1 hour. Plasma was collected continuously and 5 ml applied to 5 ml of Ficoll Paque (Pharmacia) in 15 ml polypropylene tubes. Following centrifugation at 500 g for 30 minutes, the neutrophil pellets were washed free of erythrocytes by 20 seconds of hypotonic shock. Neutrophils were resuspended in HBSS, kept on ice and used for experiments within 3 h. Neutrophil viability and purity was always greater than 90%. Solutions of test compounds were added to neutrophils at 5,000,000 cells per ml under mild vortexing. Cells were incubated for 20 minutes at 33° C. then for 10 minutes at 37° C. before addition to crystals or chemoattractants for neutrophil activation. Chemoluminescence was monitored using an luminometer at 37° C.

The subject of test [5] is crystal induced neutrophil activation. The test can be described thus: Crystal (calcium pyrophosphate dihydrate) induced neutrophil activation, chemoluminescence. The test is classed as cell-based, human. The note with it: 25 μM. How it is done:
as §4, §5

As for `CC(C)c1c(O)cc(C(C#N)=Cc2ccccc2)cc1O` [2-(3,5-Dihydroxy-4-i-propylphenyl)-3-phenylpropenylnitrile], the IC50 stood at 0.86 µM in the test with IFN-γ, 3.5 µM in the test with T-cell proliferation and 0.13 µM with IL-2 production. Also, in test [1], the “% inhibition of edema” value amounted to 85.2%. In addition, in the test with TNF-α production, the “Effect on TNF-α production, % of control” value worked out at 60%.

In the case of `CC(C)c1c(O)cc(C=Cc2ccccn2)cc1O.Cl` [2-[2-(3.5-Dihydroxy-4-i-propylphenyl)ethenyl]pyridine hydrochloride], the IC50 in the test on T-cell proliferation is 2.09 µM. Also, the “Effect on CD86 expression in murine macrophages, % of control” value (“Effect on CD86 expression … % of control” below) in [2] amounted to 88%. Also, in the test with TNF-α production, the “Effect on TNF-α production, % of control” value came to 75%.

As to `CC(C)c1c(O)cc(C=Cc2cccs2)cc1O` [2-i-Propyl-5-(2-thiophene-2-ylethenyl)-1,3-benzenediol], the IC50 is 0.08 µM in the test with IFN-γ (Mus musculus, T-cell); 5.16 µM in the test on T-cell proliferation (Mus musculus, T-cell); 18.9 µM in test [3]; 0.028 µM in the test on IL-2 production (Mus musculus, T-cell). Further, the “Effect on CD86 expression … % of control” value in test [2] was 2%. The activity at 10 µM in the test on TNF-α production is 50%.

On to `CC(C)c1c(O)cc(C=C(C#N)c2ccccc2)cc1O` [3-(3,5-Dihydroxy-4-i-propylphenyl)-2-phenylpropenylnitrile], for which the values for the IC50 in the test on IFN-γ and with T-cell proliferation were 0.71 µM and 1.81 µM, respectively. For the same compound, the “Effect on CD86 expression … % of control” value in [2] turned out to be 16%.

Turning to `CC(=Cc1ccccc1)c1cc(O)c(C(C)C)c(O)c1` [5-(1-Methyl-2-phenylethenyl)-2-i-propyl-1,3-benzenediol], the IC50 in the test on IFN-γ (Mus musculus, T-cell) stood at 1.62 µM; in the test with T-cell proliferation (Mus musculus, T-cell), 1.49 µM. Besides, the “Effect on CD86 expression … % of control” value in test [2] was 0%.

As to `CC(C)c1c(O)cc(C=C(c2ccccc2)c2ccccc2)cc1O` [5-(2,2-Diphenylethenyl)-2-i-propyl-1,3-benzenediol], the IC50 with IFN-γ (Mus musculus, T-cell) is 1.71 µM. Besides, in test [2], the “Effect on CD86 expression … % of control” value was 10%.

With `CC(=Cc1cc(O)cc(O)c1)c1ccccc1` [5-(2-Methyl-2-phenylethenyl)-1,3-benzenediol], the IC50 came out at 4.65 µM in the test with T-cell proliferation (Mus musculus, T-cell) and 1.79 µM in the test on IL-2 production (Mus musculus, T-cell). Moreover, in test [2], the “Effect on CD86 expression … % of control” value came to 90%. In addition, the activity at 10 µM in the test with TNF-α production turned out to be 42%.

As for `CC(=Cc1cc(O)c(C(C)C)c(O)c1)c1ccccc1` [5-(2-Methyl-2-phenylethenyl)-2-i-propyl-1,3-benzenediol], the IC50 with T-cell proliferation (Mus musculus, T-cell) amounted to 1.15 µM; in the test with IL-2 production (Mus musculus, T-cell), 0.4 µM. For the same compound, in test [2], the “Effect on CD86 expression … % of control” value came to 51%. Also, in test [4], the activity at 25 µM turned out to be 30%. Further, the “Crystal induced neutrophil activation, chemoluminescence (mV) as % of the control” value is reported as 23% in test [5] (time 1 minute); 10% in test [5] (time 2 minutes); 7% in [5] (time 3 minutes); 6% in test [5] (time 4 minutes); 6% in [5] (time 5 minutes); 16% in test [5] (time 7 minutes). Besides, the “Crystal induced neutrophil activation, chemoluminescence (mV) as % of the control” value in test [5] (time 10 minutes) worked out at 29%.

In the case of `C=C1/C(=C\C=C2/CCC[C@]3(C)[C@@H]([C@H](C)CCCC(C)(C)O)CC[C@@H]23)C[C@@H](O)C[C@@H]1O` [calcitriol, reference compound], in [1] (0.01% calcitriol), the “% inhibition of edema” value was found to be 31.2%.
